From patent publication US9783518B2, “Therapeutic agent and treatment method for ameliorating uremia” (Toray Industries, Inc., priority 2005, dated 2017)

Experiments:
healthy cats [1] = experiment: Observation of general clinical symptoms (adverse events) after administration of beraprost sodium to healthy cats; type: in vivo, cat; parameters: key to grade of adverse events (diarrhea, vomiting, sedation) / grade of adverse events (vomiting, diarrhea, sedation): no abnormality observed (Grade 0); slight (Grade 1); moderate (Grade 2); severe (Grade 3); settings: for adverse events (clinical symptoms): 5 healthy cats
Protocol: (§1) In this study, 3 male cats and 2 female cats, totally 5 Japanese cats, aging 3 to 6 years old were used, which were raised in an animal hospital and for which no abnormalities were observed clinically and by blood test. The subject cats were individually placed in each cage in which each cat was allowed to take water ad libitum, and each cat was fed twice a day after measuring the necessary items. For the purpose of acclimatization, the cats were measured for blood pressure noninvasively twice a day for 2 weeks.
Observations of general clinical symptoms caused by administration of beraprost sodium to healthy cats were performed as follows: Whether adverse events such as ataxia, sedation, lying, suffusion of visible mucosa, lacrimation, hypersalivation, vomiting, diarrhea, incontinence and change in respiratory conditions were expressed or not was observed. Observation was performed before administration, and 30 minutes, 1 hour, 2 hours and 3 hours after each administration during the continuous 7 days in which the drug was administered every day. Each evaluation was performed by rating in 4 ranks as follows: Respiratory conditions were ranked into: no abnormality observed (Grade 0); accelerated respiration (Grade 1); hypopnea (Grade 2); and dyspnea (Grade 3). Ataxia was ranked into: no abnormality observed (Grade 0); slight (Grade 1); moderate (Grade 2); and abasia (Grade 3). Sedation (response to verbal contact) and lying (response to verbal contact) were ranked into: no abnormality observed (Grade 0); slight (Grade 1); moderate (Grade 2); and no response (Grade 3). Evaluations of lacrimation, hypersalivation, vomiting, diarrhea and incontinence were ranked into: no abnormality observed (Grade 0); slight (Grade 1); moderate (Grade 2); and severe (Grade 3).
(§2) In each administration series, the same cat was used in each administration series as the subject cat for the correctness of the evaluation of the test drug. To eliminate the influence of the test drug of the previous series, wash out period of 2 weeks were given after the termination of the respective series. In the beraprost sodium administration series and the placebo administration series, the solution-containing capsules prepared in Example 2 were used. Administration was performed orally at fasting twice a day at intervals of 12 hours for continuous 7 days.
(§3) Statistical analysis was carried out using a statistical software Stat View J-4.5 (Abacus Concepts). Since the parameter values before and after the administration to the same individual are compared, significant test was carried out by the paired t-test. In any of the cases, when the significance level was less than 5%, it was judged as significant.

healthy cats [2] = experiment: Blood pressure and heart rate (oscillometric) in healthy cats; type: in vivo, cat
Protocol: as §1
Blood pressure and heart rate were measured as follows: These were noninvasively measured oscillometrically by using Life Scope 9 produced by NIHON KOHDEN. Systolic pressure, diastolic pressure and heart rate were measured 5 times each before the administration of beraprost sodium and 30 minutes, 1 hour, 2 hours and 3 hours after administration of beraprost sodium at the right foreleg of each cat. From the 5 measured values, the maximum and minimum values were excluded, and the average of the remaining 3 measured values was adopted as the measured value of the individual at the time point. The measurements were carried out every time for 7 days, and the responses by the respective administrations had about the same pattern. In the Example, the results (FIGS. 1 and 2) at the first administration of beraprost sodium are shown as a representative.
as §2, §3

[3] = system: immune complex-induced glomerulonephritis mouse NZB/WF1; settings: administered before onset; cited from earlier work
[4] = system: patients with renal failure; settings: renal failure in conservative stage; cited from earlier work
[5] = first administration, 10-100 μg/kg oral

## CC#CC[C@@H](C)[C@H](O)/C=C/[C@@H]1[C@H]2c3cccc(CCCC(=O)[O-])c3O[C@H]2C[C@H]1O.[Na+] (mixture of isomers) [beraprost sodium, Sodium rac-(1R,2R,3aS,8bS)-2,3,3a,8b-tetrahydro-2-hydroxy-1-[(E)-(3S,4RS)-3-hydroxy-4-methyloct-1-en-6-ynyl]-1H-cyclopenta[b][1]benzofuran-5-butanoate]
Healthy cats [1]; 10 μg/kg/BID oral, 7 days
  adverse events (clinical symptoms): not observed at all
Healthy cats [1]; 30 μg/kg/BID oral, 7 days
  adverse events (clinical symptoms): not observed at all
Healthy cats [1]; 70 μg/kg/BID oral, 7 days
  grade of adverse events (diarrhea, vomiting, sedation): Grade 1
Healthy cats [1]; 70 μg/kg/BID oral, 7 days, sporadic, 2 to 6 days after administration
  cases with adverse events such as diarrhea, vomiting and sedation: 2/5
Healthy cats [1]; 100 μg/kg/BID oral
  time of occurrence of adverse events after the administration: ≤ 2 h
Healthy cats [1]; 100 μg/kg/BID oral, 7 days
  grade of adverse events (vomiting, diarrhea, sedation): Grade 2
Healthy cats [1]; 100 μg/kg/BID oral, 7 days, from Day 2, frequent
  cats with vomiting, diarrhea and sedation: all cats
Healthy cats [1]; 70 and 100 μg/kg/BID series, after 7 days
  reversibility of adverse events: disappeared by the next day of the final administration
Healthy cats [2]; 100 μg/kg oral, 30 minutes after administration
  maximum change in heart rate (increase): about 25%
Healthy cats [2]; any dose (10-100 μg/kg oral)
  time to restoration of heart rate to the level before administration: ≤ 2 h
Healthy cats [2]; [5]
  diastolic pressure: No significant change
  pulse pressure: No significant change
  systolic pressure: No significant change
Healthy cats [2]; from 30 μg/kg/BID oral, 30 minutes to 1 hour after administration, not at 10 μg/kg/BID
  change in heart rate: significant (p<0.05) dose-dependent increase
[3]
  onset of glomerulonephritis (index: urinary excretion of albumin): can be inhibited
[4]
  renal function (creatinine clearance or reciprocal of serum creatinine): reduced the decrease in renal function
